{"source": "paper PMC4580987", "about": "“Catalytic site inhibition of insulin-degrading enzyme by a small molecule induces glucose intolerance in mice” (Nature Communications, 2015)", "key": {"C57BL/6J mice [1]": {"tested_on": "C57BL/6J mice", "experiment": "Oral glucose tolerance test (OGTT) in C57BL/6J mice", "assay_type": "in vivo, mouse", "description": "(§1) OGTT and IPGTT were performed on 11 to 16 week-old male or female mice (n=4–7 per experimental group). C57BL/6J mice were purchased from Charles River Laboratories (France), Stock no. 000664. C57BL/6J Ide−/− mice were obtained from Guenette[20] and bred in the animal facility of INSERM U1151. WT C57BL/6J mice of the same genetic background were bred in the same animal facility in parallel. NOD Ide−/− mice were generated by backcrossing C57BL/6J Ide−/− mice with NOD wt mice bred in the animal facility of INSERM U1151 and maintained in this facility together with WT NOD mice. Normoglycemic WT and Ide−/− female NOD mice aged 14 weeks were used for OGTTs. Following a 6 h fasting period, a small tail cut was made, basal blood glucose was determined. […] Fifteen minutes later, blood glucose concentrations were measured before and after (up to 120 min, as shown) oral (2 g kg^−1 or 3 g kg^−1, as shown) or intraperitoneal (1.5 g kg^−1) glucose administration. In one series of OGTTs using 3 g kg^−1 glucose and shown in Fig. 5, groups of WT and Ide−/− were inverted between experiments, such that mice initially treated with vehicle were treated 2 days later with 1 and vice versa. Blood glucose levels were determined using an Accu-Check glucometer (Roche Diagnostics). Areas under the curves (AUC) for OGTT and IPGTT were calculated to evaluate glucose tolerance. Plasma insulin concentrations were measured by ELISA (cat. no. 10-1247-01,Mercodia) in blood samples collected 15 min before and 15 and 90 min relative to oral glucose injection. The protocol was approved by the ethical comitee CEEA Paris Descartes (CEEA34)."}, "hIDE": {"target": "T1, hIDE (Homo sapiens, UniProt P14735)", "T1 construct": "made in house", "T1 sequence (P14735 1-1019)": "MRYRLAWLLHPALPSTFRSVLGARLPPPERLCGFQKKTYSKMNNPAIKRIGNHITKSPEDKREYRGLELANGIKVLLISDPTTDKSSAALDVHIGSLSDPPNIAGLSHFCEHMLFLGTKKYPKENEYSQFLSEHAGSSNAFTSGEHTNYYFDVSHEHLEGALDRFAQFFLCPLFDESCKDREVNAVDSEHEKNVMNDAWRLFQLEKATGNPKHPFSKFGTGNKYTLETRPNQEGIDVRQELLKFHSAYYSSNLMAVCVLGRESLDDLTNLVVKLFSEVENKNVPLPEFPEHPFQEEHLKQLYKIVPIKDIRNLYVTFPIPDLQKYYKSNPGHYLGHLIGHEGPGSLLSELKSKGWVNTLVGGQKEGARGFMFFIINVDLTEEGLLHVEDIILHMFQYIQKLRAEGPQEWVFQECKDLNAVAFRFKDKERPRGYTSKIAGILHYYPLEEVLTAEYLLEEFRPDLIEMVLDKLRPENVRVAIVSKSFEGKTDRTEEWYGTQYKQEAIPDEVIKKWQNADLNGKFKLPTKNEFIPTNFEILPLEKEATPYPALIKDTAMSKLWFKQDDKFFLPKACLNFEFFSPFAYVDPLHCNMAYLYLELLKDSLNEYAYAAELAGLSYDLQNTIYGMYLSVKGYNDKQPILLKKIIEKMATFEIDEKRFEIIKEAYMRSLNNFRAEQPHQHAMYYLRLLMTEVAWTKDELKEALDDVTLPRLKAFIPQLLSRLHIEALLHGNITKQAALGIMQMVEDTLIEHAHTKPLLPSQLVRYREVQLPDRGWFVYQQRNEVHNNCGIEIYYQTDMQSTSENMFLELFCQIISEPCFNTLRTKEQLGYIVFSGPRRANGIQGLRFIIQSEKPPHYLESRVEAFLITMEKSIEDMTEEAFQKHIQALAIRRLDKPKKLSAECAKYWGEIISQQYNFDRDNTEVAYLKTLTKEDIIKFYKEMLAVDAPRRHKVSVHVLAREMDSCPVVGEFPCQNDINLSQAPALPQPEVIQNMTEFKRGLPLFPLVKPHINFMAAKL", "experiment": "In vitro hIDE inhibition of Aβ16–23-based substrate hydrolysis", "assay_type": "biochemical", "description": "In vitro IDE activity was measured with a quenched substrate […]. Human recombinant IDE was cloned and purified as previously described. […] All measurements were carried out as 8-point dose response curves and reported as the average of at least three independent measurements. […] Data analysis was performed using Xlfit v 5.0 and GraphPad Prism v 4.0. Nonlinear curve fitting and statistical analysis was done using built-in functions."}, "NOD mice": {"tested_on": "NOD mice", "experiment": "Oral glucose tolerance test (OGTT) in NOD mice", "assay_type": "in vivo, mouse", "details": "50 mg kg^−1 ip", "description": "as §1, with “In one series of OGTTs using 3 g kg^−1 glucose and shown in Fig. 5, groups of WT and Ide−/− were inverted between experiments, such that mice initially treated with vehicle were treated 2 days later with 1 and vice versa.” left out, “The protocol was approved by the ethical comitee CEEA Paris Descartes (CEEA34).” left out"}, "[2]": {"tested_on": "insulin receptor, Akt and ERK phosphorylation", "experiment": "Insulin signalling by western blotting in liver and muscle", "assay_type": "in vivo, mouse", "details": "50 mg kg^−1 ip, after insulin injection", "description": "Liver and muscle were homogenized in a lysis buffer (1% triton, 0.5 % deoxycholate, 10 mM Na pyruvate, 2 mM Na Vanadate, 100 mM NaF) supplemented with the proteases inhibiteurs cocktails) and the resulting homogenate clarified by centrifugation. Proteins expression and phosphorylation were evaluated by western blot analysis. The signals were detected with a Pierce ECL western blotting substrate (Thermo scientific), according the manufacturer instructions. Primary antibodies were diluted at 1/1,000 and incubated overnight in PBS 0.1% Tween 20, 5% milk."}, "C57BL/6J mice [3]": {"tested_on": "C57BL/6J mice", "experiment": "Intraperitoneal glucose tolerance test (IPGTT)", "assay_type": "in vivo, mouse", "details": "50 mg kg^−1 ip, intraperitoneal glucose 1.5 g kg^−1", "description": "as §1, with “In one series of OGTTs using 3 g kg^−1 glucose and shown in Fig. 5, groups of WT and Ide−/− were inverted between experiments, such that mice initially treated with vehicle were treated 2 days later with 1 and vice versa.” left out, “The protocol was approved by the ethical comitee CEEA Paris Descartes (CEEA34).” left out"}, "[4]": {"experiment": "Stability in mouse plasma", "assay_type": "in vitro ADME", "details": "37 °C, read-out: Plasma stability m (t1/2)", "description": "Incubations were performed in duplicate in Eppendorf tubes. The plasma (mouse plasma, rat plasma (mixed gender), human (mixed gender, all lithium heparine, from Sera Laboratories International) or cell culture medium (differenciation medium: DMEM (Life Technologies, Ref 41965), 0.4 % gentamicine, 10 % FCS (Lonza, Ref DE14-801F) or proliferation medium: DMEM (Life Technologies, Ref 41965), 0.4 % gentamicine, 2 % horse serum (Gbco, Ref16050) was pre-incubated 5 min at 37 °C before the addition of test compounds to a final concentration of 10 μM (1% DMSO maximum). At the defined time points, 50 μl from each tube were removed to another tube containing 450 μl of cold CH3CN+ internal standard (1 μM). After centrifugation (10 min at 10,000 r.p.m.), supernatants are analysed. The degradation half-life (t1/2) values were calculated as t1/2=0.693/k where k is the first-order degradation rate constant. The degradation rate constant (k) was estimated by one-phase exponential decay nonlinear regression analysis of the degradation time course data using Xlfit software (version 2.1.2 or higher) from IDBS.Ltd."}}, "note": "Entries after “also recorded” stand apart in the source; their conditions may differ.", "data": [{"smiles": "O=C(C[C@@H](Cc1ccc2ccccc2c1)n1cc(CNC(=O)c2ccc(F)cc2)nn1)NO", "note": "[Compound 1]", "values": [{"measurement": "glucose tolerance in OGTT, WT C57BL/6J", "setting": "C57BL/6J mice [1]; 50 mg kg^−1 ip, 3 g kg^−1 oral glucose 15 min later", "value": "Impairs glucose tolerance in OGTT; also recorded: acute glucose intolerance"}, {"measurement": "glucose tolerance in OGTT, Ide−/− C57BL/6J", "setting": "C57BL/6J mice [1]; 50 mg kg^−1 ip, Ide−/− mice", "value": "did not develop glucose intolerance"}, {"measurement": "plasma insulin concentrations in OGTT, Ide−/− C57BL/6J", "setting": "C57BL/6J mice [1]; 50 mg kg^−1 ip, Ide−/− mice", "value": "no effect"}, {"measurement": "plasma glucose after oral glucose administration (OGTT compared with IPGTT)", "setting": "C57BL/6J mice [1]; 50 mg kg^−1 ip, oral glucose 2 g kg^−1", "value": "significantly increased"}, {"measurement": "plasma insulin levels in OGTT versus vehicle, WT C57BL/6J", "setting": "C57BL/6J mice [1]; baseline, 15 and 90 min after glucose load", "value": "similar"}, {"measurement": "IC50", "setting": "hIDE", "value": 300, "unit": "nM"}, {"measurement": "glucose tolerance in OGTT, WT NOD", "setting": "NOD mice; 14 week-old female WT NOD mice, 3 g kg^−1 glucose", "value": "strong impairment of glucose tolerance"}, {"measurement": "insulinaemia in OGTT, WT NOD", "setting": "NOD mice; WT NOD mice", "value": "hyperinsulinemia"}, {"measurement": "insulin signalling: phosphorylation of insulin receptor, Akt and ERK in liver and muscle", "setting": "[2]", "value": "Increase insulin signaling; also recorded: increased the phosphorylation"}, {"measurement": "plasma glucose / glucose tolerance in IPGTT", "setting": "C57BL/6J mice [3]", "value": "Impairs glucose tolerance in IPGTT"}, {"measurement": "half-life at 10 μM", "setting": "[4]", "value": 24, "unit": "h"}]}]}
